Data taken from US11203613B2, “Peptidomimetic proteasome inhibitors” (CORNELL UNIVERSITY, priority 2017, dated 2021).
“And” between values parts separate entries of the source, which are not always exact repeats. Equal values may be shown once. Read-outs that look alike come from different tables or passages of the source.

What was measured:
[1] = target: Human Constitutive (Hu C-20S) β5 Active Subunit (Homo sapiens, UniProt P28074); assay: IC50 determination, human constitutive 20S proteasome β5c (suc-LLVY-AMC hydrolysis); format: biochemical; settings: Table 2; several values in a cell are repeat determinations; read-out: Hu c-20S IC50
[2] = target: Mtb20SOG (Mycobacterium tuberculosis, UniProt P9WHT9); assay: biochemical
Chain of Mtb20SOG (P9WHT9 58-291): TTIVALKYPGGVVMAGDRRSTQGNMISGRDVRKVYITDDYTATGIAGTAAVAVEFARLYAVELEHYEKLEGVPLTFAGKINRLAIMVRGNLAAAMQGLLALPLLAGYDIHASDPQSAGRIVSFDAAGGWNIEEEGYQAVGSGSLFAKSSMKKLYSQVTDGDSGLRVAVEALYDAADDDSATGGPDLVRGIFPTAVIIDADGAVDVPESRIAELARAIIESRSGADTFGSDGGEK

[3] = Table 2, several values in a cell are repeat determinations

Structure (SMILES) | IC50 [1] | IC50 [2, 3] | IC50 [2]
CC[C@H]1CCCCN1C(=O)C[C@H](NC(=O)CCC(C)C)C(=O)N[C@@H](C)c1ncc(-c2ccc(F)cc2F)[nH]1 [CF-503213] | 4490 nM and 4430 nM | 33 nM and 29 nM | –
CC(C)CCC(=O)N[C@@H](CC(=O)N1CCCCCC1)C(=O)N[C@@H](C)c1nc(-c2ccc(F)cc2F)c[nH]1 [CF-503214] | 10200 nM | – | 667 nM
CC[C@H]1CCCCN1C(=O)C[C@H](NC(=O)CCC(C)C)C(=O)N[C@@H](C)c1nc2ccccc2[nH]1 [CF-503216] | 14800 nM and 14500 nM | – | 296 nM and 333 nM
CC(C)CCC(=O)N[C@@H](CC(=O)N1CCCCC1C(C)C)C(=O)N[C@@H](C)c1ncc(-c2ccc(F)cc2F)[nH]1 (stereo partly shown) [CF-503218] | 3180 nM | 136 nM and 168 nM | –
CC[C@H]1CCCCN1C(=O)C[C@H](NC(=O)CCC(C)C)C(=O)N[C@@H](C)c1nc2cc(F)cc(F)c2[nH]1 [CF-503219] | 4060 nM and 4500 nM | – | 793 nM and 840 nM
CC[C@H]1CCCCN1C(=O)C[C@H](NC(=O)CCC(C)(C)C)C(=O)N[C@@H](C)c1nc2c(F)cccc2[nH]1 [CF-503222] | 11200 nM and 12300 nM and 11700 nM | 15 nM and 29 nM and 41 nM | –
CC[C@H]1CCCCN1C(=O)C[C@H](NC(=O)CCC(C)C)C(=O)N[C@@H](C)c1nc2c(F)cccc2[nH]1 [CF-503223] | 10600 nM and 10200 nM | – | 28 nM and 33 nM
CC(C)CCC(=O)N[C@@H](CC(=O)N1CCCC[C@@H]1C)C(=O)N[C@@H](C)c1nc2c(F)cccc2[nH]1 [CF-503225] | 16200 nM and 16900 nM | 97 nM and 118 nM | –
C[C@H](NC(=O)[C@H](CC(=O)N1CCCC[C@@H]1C)NC(=O)CCC(C)(C)C)c1nc2c(F)cccc2[nH]1 [CF-503227] | 4830 nM and 6490 nM | 79 nM and 81 nM | –
CC[C@H]1CCCCN1C(=O)C[C@H](NC(=O)CCC(C)C)C(=O)N[C@@H](C)c1nc2cc(F)c(F)cc2[nH]1 [CF-503229] | 5000 nM | – | 6000 nM
CC[C@H]1CCCCN1C(=O)C[C@H](NS(=O)(=O)CCC(C)C)C(=O)N[C@@H](C)c1nc2c(F)cccc2[nH]1 [CF-503230] | 17800 nM and 8600 nM | 400 nM and 520 nM | –
C[C@H](NC(=O)[C@@H](N)CC(=O)N1CCC[C@@H]1c1ccccc1)c1ncc(-c2ccccc2F)[nH]1 [CF-503240] | 94000 nM | 8500 nM | –
C[C@H](NC(=O)[C@H](CC(=O)N1CCC[C@@H]1c1ccccc1)Nc1nc2ccccc2o1)c1ncc(-c2ccccc2F)[nH]1 [CF-503242] | 16800 nM and 20600 nM | 753 nM and 677 nM | –
Cc1cc(C(=O)N[C@@H](CC(=O)N2CCCC[C@@H]2C)C(=O)N[C@@H](C)c2nc3c(F)cccc3[nH]2)no1 [CF-503274] | 7090 nM | – | 69 nM
CC[C@H]1CCCCN1C(=O)C[C@H](NC(=O)CCc1ccccc1)C(=O)N[C@@H](C)c1nc2c(F)cccc2[nH]1 [CF-503291] | 2640 nM and 3390 nM | – | 7 nM and 6 nM
CC[C@H]1CCCCN1C(=O)C[C@H](NC(=O)NCc1ccccc1)C(=O)N[C@@H](C)c1nc2c(F)cccc2[nH]1 [CF-503304] | 9360 nM and 9400 nM | – | 359 nM and 327 nM
CC[C@H]1CCCCN1C(=O)C[C@H](NC(=O)CC1CC1)C(=O)N[C@@H](C)c1nc2c(F)cccc2[nH]1 [CF-503318] | 16900 nM | – | 112 nM
CC[C@H]1CCCCN1C(=O)C[C@H](NC(=O)CC(F)(F)F)C(=O)N[C@@H](C)c1nc2c(F)cccc2[nH]1 [CF-503319] | 4200 nM | – | 320 nM
CC[C@H]1CCCCN1C(=O)C[C@H](Nc1nc2ccccc2o1)C(=O)N[C@@H](C)c1nc2c(F)cccc2[nH]1 [CF-503321] | 4500 nM and 5200 nM | 271 nM and 374 nM | –
CC[C@H]1CCCCN1C(=O)C[C@H](NC(=O)CCN(C)C)C(=O)N[C@@H](C)c1nc2c(F)cccc2[nH]1 [CF-503356] | 6400 nM | – | 6400 nM
CC[C@H]1CCCCN1C(=O)C[C@H](Nc1nc2cc(C)ccc2o1)C(=O)N[C@@H](C)c1nc2c(F)cccc2[nH]1 [CF-503357] | 1900 nM | – | 260 nM

Structure (SMILES) | IC50 [1] | IC50 [2, 3] | IC50 [2]
CC[C@H]1CCCCN1C(=O)C[C@H](Nc1nc2ccc(C)cc2o1)C(=O)N[C@@H](C)c1nc2c(F)cccc2[nH]1 [CF-503360] | 1120 nM and 1430 nM and 1420 nM and 1440 nM | 125 nM and 190 nM and 353 nM and 361 nM | –
CC(NC(=O)C(CC(=O)N1CCCCC1C)NC(=O)C1CC1c1ccccc1)c1nc2c(F)cccc2[nH]1 (stereo not shown) [CF-503363] | 8000 nM | – | 50.7 nM
CC(C)C1CC1C(=O)N[C@@H](CC(=O)N1CCCC[C@@H]1C)C(=O)N[C@@H](C)c1nc2c(F)cccc2[nH]1 (stereo partly shown) [CF-503381] | 2470 nM | 41 nM and 36 nM | –
CC[C@H]1CCCCN1C(=O)C[C@H](NC(=O)[C@@H]1C[C@H]1c1ccccc1)C(=O)N[C@@H](C)c1nc2c(F)cccc2[nH]1 [CF-503382] | 12000 nM | 166 nM | –
CC[C@H]1CCCCN1C(=O)C[C@H](Nc1nc(C(C)C)no1)C(=O)NCc1nc2c(F)cccc2[nH]1 [CF-503417] | 3600 nM and 2990 nM | 1350 nM and 1770 nM | –
CC[C@H]1CCCCN1C(=O)C[C@H](Nc1nc(Cc2ccc(F)cc2)no1)C(=O)N[C@@H](C)c1nc2c(F)cccc2[nH]1 [CF-503419] | 1360 nM and 1200 nM | – | 257 nM and 319 nM
CC[C@H]1CCCCN1C(=O)C[C@H](Nc1nc2ccccc2s1)C(=O)N[C@@H](C)c1nc2c(F)cccc2[nH]1 [CF-503445] | 1190 nM | 1180 nM | –
CC[C@H]1CCCCN1C(=O)C[C@H](NC(=O)N(C)Cc1ccccc1)C(=O)N[C@@H](C)c1nc2c(F)cccc2[nH]1 [CF-503451] | 3330 nM and 3700 nM | – | 176 nM and 184 nM
CC[C@H]1CCCCN1C(=O)C[C@H](NC(=O)N1CCOCC1)C(=O)N[C@@H](C)c1nc2c(F)cccc2[nH]1 [CF-503453] | 4450 nM | 4690 nM | –
CC[C@H]1CCCCN1C(=O)C[C@H](NC(=O)N1CCCCC1)C(=O)N[C@@H](C)c1nc2c(F)cccc2[nH]1 [CF-503454] | 3000 nM | 765 nM | –
CC[C@H]1CCCCN1C(=O)C[C@H](NC(=O)N(C)CC(C)C)C(=O)N[C@@H](C)c1nc2c(F)cccc2[nH]1 [CF-503457] | 5030 nM | 2360 nM | –
CC(NC(=O)C(CC(=O)N1CCCCC1C)NC(=O)N(C)Cc1ccccc1)c1nc2c(F)cccc2[nH]1 (stereo not shown) [CF-503460] | 17200 nM | – | 272 nM
CC[C@H]1CCCCN1C(=O)C[C@H](NC(=O)OCc1ccccc1)C(=O)N[C@@H](C)c1nc2c(F)cccc2[nH]1 [CF-503461] | 5800 nM and 8200 nM | 68 nM and 75 nM | –
CC(NC(=O)C(CC(=O)N1CCCCC1C)NC(=O)OCc1ccccc1)c1nc2c(F)cccc2[nH]1 (stereo not shown) [CF-503462] | 14800 nM | – | 120 nM
CC(C)COC(=O)NC(CC(=O)N1CCCCC1C)C(=O)NC(C)c1nc2c(F)cccc2[nH]1 (stereo not shown) [CF-503463] | 2500 nM | – | 1140 nM
CC[C@H]1CCCCN1C(=O)C[C@H](NC(=O)C1CC(C)(C)C1)C(=O)N[C@@H](C)c1nc2c(F)cccc2[nH]1 [CF-503464] | 1260 nM | – | 10 nM and 19 nM
CC(NC(=O)C(CC(=O)N1CCCCC1C)NC(=O)C1CC(C)(C)C1)c1nc(-c2ccc(F)cc2F)c[nH]1 (stereo not shown) [CF-503474] | 5650 nM | – | 14 nM
CC(NC(=O)C(CC(=O)N1CCCCC1C)NC(=O)C1CC1C(C)C)c1nc(-c2ccc(F)cc2F)c[nH]1 (stereo not shown) [CF-503475] | 4770 nM | – | 34 nM
CC(C)c1noc(N[C@@H](CC(=O)N2CCCC[C@@H]2C)C(=O)N[C@@H](C)c2ncc(-c3ccc(F)cc3F)[nH]2)n1 [CF-503477] | 2290 nM | 2050 nM | –
Cc1cc(C(=O)N[C@@H](CC(=O)N2CCCC[C@@H]2C)C(=O)NC(C)c2nc3ccccc3[nH]2)no1 (stereo partly shown) [drawing 395] | 71600 nM | 549 nM and 331 nM | –
